Source: patent US8785429B2, “Dihydropyrrolonaphthyridinone compounds as inhibitors of JAK” (Takeda Pharmaceutical Company Limited, priority 2009, dated 2014)
Each block holds one compound with its values, some of them ahead of it.

Experiments:
JAK3 = target: T1, JAK3 (Homo sapiens, UniProt P52333); test: Assay for JAK3 Inhibition (phosphorylation of FAM-labeled substrate, Caliper LC-3000); assay type: biochemical; details: −log10(IC50), IC50 is the molar concentration at 50% inhibition; read-out: JAK3 pIC50 (converted)
T1 construct: purchased Invitrogen
T1 sequence (P52333 1-1124): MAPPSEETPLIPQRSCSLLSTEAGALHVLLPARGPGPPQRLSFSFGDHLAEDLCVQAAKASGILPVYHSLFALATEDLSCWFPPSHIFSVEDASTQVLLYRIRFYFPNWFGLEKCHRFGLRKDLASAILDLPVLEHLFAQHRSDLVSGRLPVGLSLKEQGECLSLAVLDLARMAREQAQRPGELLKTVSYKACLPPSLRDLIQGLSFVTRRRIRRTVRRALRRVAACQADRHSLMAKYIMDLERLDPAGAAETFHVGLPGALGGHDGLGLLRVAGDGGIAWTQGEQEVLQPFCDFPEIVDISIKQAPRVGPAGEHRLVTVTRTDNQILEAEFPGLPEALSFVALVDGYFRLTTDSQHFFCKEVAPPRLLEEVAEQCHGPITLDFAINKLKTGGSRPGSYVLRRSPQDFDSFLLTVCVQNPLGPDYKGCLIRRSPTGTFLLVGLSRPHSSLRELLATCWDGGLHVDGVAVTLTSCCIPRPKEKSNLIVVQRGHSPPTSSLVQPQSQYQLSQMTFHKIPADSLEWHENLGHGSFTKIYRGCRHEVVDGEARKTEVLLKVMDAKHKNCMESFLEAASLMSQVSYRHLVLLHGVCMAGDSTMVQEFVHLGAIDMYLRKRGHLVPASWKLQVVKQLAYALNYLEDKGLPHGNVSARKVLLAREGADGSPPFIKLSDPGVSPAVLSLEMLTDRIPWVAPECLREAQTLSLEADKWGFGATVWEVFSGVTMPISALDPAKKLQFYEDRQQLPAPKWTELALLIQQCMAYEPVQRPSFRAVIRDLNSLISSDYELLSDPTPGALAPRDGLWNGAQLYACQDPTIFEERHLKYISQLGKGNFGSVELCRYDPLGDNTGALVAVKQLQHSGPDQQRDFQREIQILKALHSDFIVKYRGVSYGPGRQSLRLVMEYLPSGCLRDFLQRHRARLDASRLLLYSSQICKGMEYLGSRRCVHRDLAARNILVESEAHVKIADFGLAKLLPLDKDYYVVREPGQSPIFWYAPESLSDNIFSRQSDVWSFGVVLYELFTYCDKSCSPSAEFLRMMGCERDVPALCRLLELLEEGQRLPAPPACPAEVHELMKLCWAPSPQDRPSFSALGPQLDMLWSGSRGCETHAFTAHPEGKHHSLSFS

JAK2 = target: T2, JAK2 (Homo sapiens, UniProt O60674); test: Assay for JAK2 Inhibition (phosphorylation of FAM-labeled substrate, Caliper LC-3000); assay type: biochemical; details: −log10(IC50), IC50 is the molar concentration at 50% inhibition; read-out: JAK2 pIC50 (converted)
T2 construct: purchased Invitrogen
T2 sequence (O60674 whole entry): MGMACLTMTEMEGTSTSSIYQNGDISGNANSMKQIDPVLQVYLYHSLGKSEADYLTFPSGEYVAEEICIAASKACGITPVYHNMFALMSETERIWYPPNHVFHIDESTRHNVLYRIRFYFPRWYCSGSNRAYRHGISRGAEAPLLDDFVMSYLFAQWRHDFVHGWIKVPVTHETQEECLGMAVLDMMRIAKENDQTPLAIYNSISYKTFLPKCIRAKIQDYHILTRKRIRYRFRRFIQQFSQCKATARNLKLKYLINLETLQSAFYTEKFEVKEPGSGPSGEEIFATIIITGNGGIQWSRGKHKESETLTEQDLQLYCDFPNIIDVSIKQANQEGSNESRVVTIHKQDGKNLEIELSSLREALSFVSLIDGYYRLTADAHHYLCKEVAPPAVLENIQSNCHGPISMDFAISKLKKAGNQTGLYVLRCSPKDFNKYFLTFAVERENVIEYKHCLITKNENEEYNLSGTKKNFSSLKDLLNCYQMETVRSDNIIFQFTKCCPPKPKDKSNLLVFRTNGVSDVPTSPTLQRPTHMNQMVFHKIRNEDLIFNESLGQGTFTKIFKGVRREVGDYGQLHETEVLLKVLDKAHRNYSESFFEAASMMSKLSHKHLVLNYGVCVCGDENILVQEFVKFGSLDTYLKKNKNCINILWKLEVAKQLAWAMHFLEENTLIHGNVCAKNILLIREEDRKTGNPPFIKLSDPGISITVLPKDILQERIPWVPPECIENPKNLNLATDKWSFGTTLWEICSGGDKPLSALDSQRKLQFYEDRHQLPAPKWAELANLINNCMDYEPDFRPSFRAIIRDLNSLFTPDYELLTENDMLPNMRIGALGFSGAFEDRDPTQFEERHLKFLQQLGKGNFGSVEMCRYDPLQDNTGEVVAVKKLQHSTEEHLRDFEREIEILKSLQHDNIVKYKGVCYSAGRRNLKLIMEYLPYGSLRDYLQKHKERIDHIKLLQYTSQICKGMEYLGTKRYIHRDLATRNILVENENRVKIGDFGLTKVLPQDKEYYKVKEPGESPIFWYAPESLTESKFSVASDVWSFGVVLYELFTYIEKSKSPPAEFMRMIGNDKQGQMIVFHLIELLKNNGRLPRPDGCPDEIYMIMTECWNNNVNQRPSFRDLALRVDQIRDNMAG

Compound: CC[C@H](CC#N)NC(=O)[C@@H](C(C)C)N1Cc2c(Cl)cnc3[nH]cc(c23)C1=O [Example 38, (R)-2-(6-chloro-3-oxopyrrolo[4,3,2-de][2,6]naphthyridin-4(1H,3H,5H)-yl)-N—((R)-1-cyanobutan-2-yl)-3-methylbutanamide]
IC50 (JAK3): 31.6 nM
IC50 (JAK2): 1000 nM

Compound: CC(C)[C@H](C(=O)NCC#N)N1Cc2c(Cl)cnc3[nH]cc(c23)C1=O [Example 32, (R)-2-(6-chloro-3-oxopyrrolo[4,3,2-de][2,6]naphthyridin-4(1H,3H,5H)-yl)-N-(cyanomethyl)-3-methylbutanamide]
IC50 (JAK3): 10 nM
IC50 (JAK2): 200 nM

Compound: CC[C@H](C(=O)N1CCN(C)CC1)N1Cc2ccnc3[nH]cc(c23)C1=O [Example 55, (R)-4-(1-(4-methylpiperazin-1-yl)-1-oxobutan-2-yl)-4,5-dihydropyrrolo[4,3,2-de][2,6]naphthyridin-3(1 H)-one]
IC50 (JAK3): 1000 nM
IC50 (JAK2): 12600 nM

Compound: O=C(NC1CCCC1)[C@@H](CC(F)(F)F)N1Cc2ccnc3[nH]cc(c23)C1=O [Example 28, (R)—N-cyclopentyl-4,4,4-trifluoro-2-(3-oxopyrrolo[4,3,2-de][2,6]naphthyridin-4(1H,3H,5H)-yl)butanamide]
IC50 (JAK3): 398 nM
IC50 (JAK2): 10000 nM

Compound: CC(C)[C@H](C(=O)N1CC(F)(F)C1)N1Cc2c(F)cnc3[nH]cc(c23)C1=O [Example 76, (R)-4-(1-(3,3-difluoroazetidin-1-yl)-3-methyl-1-oxobutan-2-yl)-6-fluoro-4,5-dihydropyrrolo[4,3,2-de][2,6]naphthyridin-3(1 H)-one]
IC50 (JAK3): 63.1 nM
IC50 (JAK2): 1000 nM

Compound: N#CC[C@H](C(=O)NC1CCCC1)N1Cc2c(Cl)cnc3[nH]cc(c23)C1=O [Example 30, (R)-2-(6-chloro-3-oxopyrrolo[4,3,2-de][2,6]naphthyridin-4(1H,3H,5H)-yl)-3-cyano-N-cyclopentylpropanamide]
IC50 (JAK3): 1260 nM
IC50 (JAK2): 3160 nM

Compound: CC(C)[C@H](C(=O)NOCC1CC1)N1Cc2c(F)cnc3[nH]cc(c23)C1=O [Example 49, (R)—N-(cyclopropylmethoxy)-2-(6-fluoro-3-oxopyrrolo[4,3,2-de][2,6]naphthyridin-4(1H,3H,5H)-yl)-3-methylbutanamide]
IC50 (JAK3): 100 nM
IC50 (JAK2): 2000 nM

Compound: Cc1cnc2[nH]cc3c2c1CN([C@@H](C(=O)N1CC(C#N)C1)C(C)(C)C)C3=O [Example 87, (R)-1-(3,3-dimethyl-2-(6-methyl-3-oxopyrrolo[4,3,2-de][2,6]naphthyridin-4(1H,3H,5H)-yl)butanoyl)azetidine-3-carbonitrile]
IC50 (JAK3): 3.16 nM
IC50 (JAK2): 50.1 nM

Compound: CC[C@H](C(=O)N1CCOCC1)N1Cc2ccnc3[nH]cc(c23)C1=O [Example 54, (R)-4-(1-morpholino-1-oxobutan-2-yl)-4,5-dihydropyrrolo[4,3,2-de][2,6]naphthyridin-3(1 H)-one]
IC50 (JAK3): 2000 nM
IC50 (JAK2): 31600 nM

Compound: CC(C)[C@H](C(=O)N1CCCC1)N1Cc2ccnc3[nH]cc(c23)C1=O [Example 20, (R)-4-(3-methyl-1-oxo-1-(pyrrolidin-1-yl)butan-2-yl)-4,5-dihydropyrrolo[4,3,2-de][2,6]naphthyridin-3(1H)-one]
IC50 (JAK3): 79.4 nM
IC50 (JAK2): 1580 nM

Other lines, results leading:

IC50 (JAK3): 126 nM
IC50 (JAK2): 2510 nM
Compound: CC(C)[C@H](C(=O)N(C)CC#N)N1Cc2c(F)cnc3[nH]cc(c23)C1=O [Example 79, (R)—N-(cyanomethyl)-2-(6-fluoro-3-oxopyrrolo[4,3,2-de][2,6]naphthyridin-4(1H,3H,5H)-yl)-N,3-dimethylbutanamide]

IC50 (JAK3): 2000 nM
IC50 (JAK2): 6310 nM
Compound: CC[C@H](C(=O)NC1CC1)N1Cc2ccnc3[nH]cc(c23)C1=O [Example 65, (R)—N-cyclopropyl-2-(3-oxopyrrolo[4,3,2-de][2,6]naphthyridin-4(1H,3H,5H)-yl)butanamide]

IC50 (JAK3): 631 nM
IC50 (JAK2): 10000 nM
Compound: CC[C@H](C(=O)N1CCC(O)C1)N1Cc2ccnc3[nH]cc(c23)C1=O (stereo partly drawn) [Example 56, 4-((2R)-1-(3-hydroxypyrrolidin-1-yl)-1-oxobutan-2-yl)-4,5-dihydropyrrolo[4,3,2-de][2,6]naphthyridin-3(1 H)-one]

IC50 (JAK3): 100 nM
IC50 (JAK2): 1580 nM
Compound: CC(C)[C@H](C(=O)N1CCC[C@@H]1C#N)N1Cc2c(Cl)cnc3[nH]cc(c23)C1=O [Example 85, (R)-1-((R)-2-(6-chloro-3-oxopyrrolo[4,3,2-de][2,6]naphthyridin-4(1H,3H,5H)-yl)-3-methylbutanoyl)pyrrolidine-2-carbonitrile]

IC50 (JAK3): 126 nM
IC50 (JAK2): 2510 nM
Compound: CC(C)[C@H](C(=O)NC1CCS(=O)(=O)CC1)N1Cc2c(F)cnc3[nH]cc(c23)C1=O [Example 47, (R)—N-(1,1-dioxidotetrahydro-2H-thiopyran-4-yl)-2-(6-fluoro-3-oxopyrrolo[4,3,2-de][2,6]naphthyridin-4(1H,3H,5H)-yl)-3-methylbutanamide]
